Measurements as given in US12516039B2, “N-linked isoquinoline amides as LRRK2 inhibitors, pharmaceutical compositions, and uses thereof” (Merck Sharp & Dohme LLC, priority 2020, dated 2026).

Target: T1, GST-tagged truncated human mutant G2019S LRRK2 (Homo sapiens, UniProt Q5S007, G2019S)
T1 construct: GST-tagged truncated human mutant G2019S LRRK2; purchased Life Technologies Corporation (Carlsbad, CA)
Experiment: LRRK2 G2019S Km ATP LanthaScreen assay
Assay type: biochemical
Conditions: 134 μM ATP (Km ATP), LRRKtide substrate, mean of several tests; for IC50: read-out: LRRK2 pIC50 (converted)
Method in brief: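 IC50 values are means of repeat runs, fitted with a 4-parameter logistic to the 520/495 nm TR-FRET ratio from a Tb-labeled anti-phospho-LRRKtide antibody added with EDTA. Reactions ran 90 min at room temperature at Km ATP (134 μM) with fluorescein-LRRKtide, after 15-min compound preincubation with truncated GST-tagged G2019S LRRK2.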

T1 sequence (Q5S007 970-2527 G2019S limits assumed): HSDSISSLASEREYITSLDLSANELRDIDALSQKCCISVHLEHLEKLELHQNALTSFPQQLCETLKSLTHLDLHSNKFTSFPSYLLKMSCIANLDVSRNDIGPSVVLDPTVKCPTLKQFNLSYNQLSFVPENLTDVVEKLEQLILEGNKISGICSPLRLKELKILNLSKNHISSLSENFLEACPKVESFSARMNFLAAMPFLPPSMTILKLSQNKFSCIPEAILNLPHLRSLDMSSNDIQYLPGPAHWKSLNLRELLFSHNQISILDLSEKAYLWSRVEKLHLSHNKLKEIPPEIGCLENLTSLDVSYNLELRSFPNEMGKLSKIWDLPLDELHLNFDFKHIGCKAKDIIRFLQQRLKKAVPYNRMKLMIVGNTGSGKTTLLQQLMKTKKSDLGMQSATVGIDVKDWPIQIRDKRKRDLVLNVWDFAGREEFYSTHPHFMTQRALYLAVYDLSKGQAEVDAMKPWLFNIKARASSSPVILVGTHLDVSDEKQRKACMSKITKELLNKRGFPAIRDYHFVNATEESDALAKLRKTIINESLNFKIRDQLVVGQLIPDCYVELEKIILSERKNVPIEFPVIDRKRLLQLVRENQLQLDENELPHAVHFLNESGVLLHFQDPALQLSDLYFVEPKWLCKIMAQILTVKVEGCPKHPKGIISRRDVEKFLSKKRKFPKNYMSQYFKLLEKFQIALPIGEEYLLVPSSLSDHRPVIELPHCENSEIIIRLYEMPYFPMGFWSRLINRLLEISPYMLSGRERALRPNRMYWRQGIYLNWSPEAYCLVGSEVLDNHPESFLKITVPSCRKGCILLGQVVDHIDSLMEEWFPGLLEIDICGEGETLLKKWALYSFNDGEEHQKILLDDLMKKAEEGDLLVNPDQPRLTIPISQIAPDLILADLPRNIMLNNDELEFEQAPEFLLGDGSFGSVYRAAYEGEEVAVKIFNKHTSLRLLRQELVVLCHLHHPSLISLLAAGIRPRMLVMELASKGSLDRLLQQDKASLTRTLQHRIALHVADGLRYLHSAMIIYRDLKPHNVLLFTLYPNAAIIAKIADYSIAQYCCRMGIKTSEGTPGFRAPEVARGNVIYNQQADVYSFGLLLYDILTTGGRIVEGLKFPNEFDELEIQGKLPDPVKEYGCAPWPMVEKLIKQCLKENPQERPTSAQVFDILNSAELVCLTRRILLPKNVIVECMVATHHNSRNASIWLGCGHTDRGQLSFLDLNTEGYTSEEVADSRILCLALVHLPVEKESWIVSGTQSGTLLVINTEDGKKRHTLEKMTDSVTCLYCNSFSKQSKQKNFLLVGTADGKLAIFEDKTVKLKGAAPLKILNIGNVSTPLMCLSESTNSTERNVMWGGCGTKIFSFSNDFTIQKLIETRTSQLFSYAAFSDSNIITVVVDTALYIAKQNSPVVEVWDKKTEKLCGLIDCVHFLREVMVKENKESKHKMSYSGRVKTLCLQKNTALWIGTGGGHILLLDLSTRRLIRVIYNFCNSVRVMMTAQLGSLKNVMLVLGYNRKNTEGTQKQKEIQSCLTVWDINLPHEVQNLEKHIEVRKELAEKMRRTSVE

| Structure (SMILES) | IC50 | LRRK2 pIC50 |
| --- | --- | --- |
| COc1cc2cnc(NC(=O)C3CC34CCOCC4)cc2cc1N1CCN(C2(C)COCC2O)CC1 (single isomer, unassigned) [Ex-13] | 3.39 nM | – |
| C[C@H]1CN(C2(C)COCC2O)CCN1c1cc2cc(NC(=O)C3CC34CCOCC4)ncc2cc1Cl (single isomer, unassigned) [Ex-14.1, N-(7-chloro-6-((2R or 2S)-4-(4-(3R,4R or 3S,4S)-hydroxy-3-methyltetrahydrofuran-3-yl)-2-methylpiperazin-1-yl)isoquinolin-3-yl)-6-oxaspiro[2.5]octane-1-carboxamide] | 87.1 nM | – |
| C[C@H]1CN(C2(C)COCC2O)CCN1c1cc2cc(NC(=O)C3CC34CCOCC4)ncc2cc1Cl (single isomer, unassigned) [Ex-14.2, N-(7-chloro-6-((2R or 2S)-4-(4-(3R,4R or 3S,4S)-hydroxy-3-methyltetrahydrofuran-3-yl)-2-methylpiperazin-1-yl)isoquinolin-3-yl)-6-oxaspiro[2.5]octane-1-carboxamide] | 0.0813 nM | – |
| Cc1cc2cnc(NC(=O)C3CC34CCOCC4)cc2cc1N1CCN(C2(C)COCC2O)C[C@@H]1C (single isomer, unassigned) [Ex-15.1, (R or S)-N-(6-((2R or 2S)-4-(4-(3R,4R or 3S,4S)-hydroxy-3-methyltetrahydrofuran-3-yl)-2-methylpiperazin-1-yl)-7-methylisoquinolin-3-yl)-6-oxaspiro[2.5]octane-1-carboxamide] | 4.68 nM | – |
| Cc1cc2cnc(NC(=O)C3CC34CCOCC4)cc2cc1N1CCN(C2(C)COCC2O)C[C@@H]1C (single isomer, unassigned) [Ex-15.2, (R or S)-N-(6-((2R or 2S)-4-(4-(3R,4R or 3S,4S)-hydroxy-3-methyltetrahydrofuran-3-yl)-2-methylpiperazin-1-yl)-7-methylisoquinolin-3-yl)-6-oxaspiro[2.5]octane-1-carboxamide] | 0.0813 nM | – |
| Cn1ncc(C2CC2C(=O)Nc2cc3cc(N4CCN(C5(C)COCC5O)CC4)c(Cl)cc3cn2)n1 (single isomer, unassigned) [Ex-16.1, (1S,2R or 1S,2S)-N-(N-(7-chloro-6-(4-(4-hydroxy-3-methyltetrahydrofuran-3-yl)piperazin-1-yl)isoquinolin-3-yl)-2-(2-methyl-2H-1,2,3-triazol-4-yl)cyclopropane-1-carboxamide] | 0.145 nM | – |
| Cn1ncc(C2CC2C(=O)Nc2cc3cc(N4CCN(C5(C)COCC5O)CC4)c(Cl)cc3cn2)n1 (single isomer, unassigned) [Ex-16.2, (1S,2R or 1S,2S)-N-(N-(7-chloro-6-(4-(4-hydroxy-3-methyltetrahydrofuran-3-yl)piperazin-1-yl)isoquinolin-3-yl)-2-(2-methyl-2H-1,2,3-triazol-4-yl)cyclopropane-1-carboxamide] | 0.0813 nM | – |
| C[C@]1(O)COC[C@@]1(C)N1CCN(c2cc3cc(NC(=O)[C@@H]4CC45CCOCC5)ncc3cc2Cl)CC1 (single isomer, unassigned) [Ex-17.1, (R) or (S)-N-(7-chloro-6-((3R,4R) or (3S,4S)-4-(4-hydroxy-3,4-dimethyltetrahydrofuran-3-yl)piperazin-1-yl)isoquinolin-3-yl)-6-oxaspiro[2.5]octane-1-carboxamide] | 0.0813 nM | – |
| C[C@]1(O)COC[C@@]1(C)N1CCN(c2cc3cc(NC(=O)[C@@H]4CC45CCOCC5)ncc3cc2Cl)CC1 (single isomer, unassigned) [Ex-17.2, (R) or (S)-N-(7-chloro-6-((3R,4R) or (3S,4S)-4-(4-hydroxy-3,4-dimethyltetrahydrofuran-3-yl)piperazin-1-yl)isoquinolin-3-yl)-6-oxaspiro[2.5]octane-1-carboxamide] | 0.126 nM | – |
| CC1(O)CCN(c2cc3cc(NC(=O)C4CC4)ncc3cc2Cl)CC1 [Ex-4.2] | 10.5 nM | – |
| O=C(Nc1cc2cc(N3CCc4[nH]ncc4C3)c(Cl)cc2cn1)C1CC1 [Ex-4.3] | – | 7.85 |
| CC1(N2CCN(c3cc4cc(NC(=O)C5CC56CC6)ncc4cc3Cl)CC2)COC1 (stereo not shown) [Ex-4.4] | – | 7.85 |
| CC1(O)CC2(CN(c3cc4cc(NC(=O)C5CC5)ncc4cc3Cl)C2)C1 [Ex-4.5] | – | 7.72 |
